Assay results published in patent publication US12139487B2, “Compounds and uses thereof” (Foghorn Therapeutics Inc., priority 2022, dated 2024).

How the values were obtained:
BRM = molecular target: T1, BRM (Homo sapiens, UniProt P51531); experiment: ATPase catalytic activity assay (ADP-Glo), BRM; assay type: biochemical; details: Table 10; for Ratio (BRG1 IC50 (μM) divided by BRM IC50 (μM)): ATPase assay, selectivity BRG1/BRM; for IC50: ATPase catalytic activity assay (ADP-Glo)
T1 construct: made in house; host or cells: High Five insect cells
Method in brief: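 Reaction holds 30 nM BRM, 20 nM salmon sperm DNA and 400 μM ATP in 20 mM Tris pH 8, 20 mM MgCl2, 50 mM NaCl, 0.1% Tween-20, 1 mM DTT. Incubated 1 h at room temperature. ADP formed is detected by ADP-Glo luminescence.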

BRG-1 = molecular target: T2, BRG-1 (Homo sapiens, UniProt P51532); experiment: ATPase catalytic activity assay (ADP-Glo), BRG-1; assay type: biochemical; details: Table 10, read-out: BRG1 IC50
T2 construct: made in house; host or cells: High Five insect cells
Protocol: The ATPase catalytic activity of BRM or BRG-1 was measured by an in vitro biochemical assay using ADP-Glo™ (Promega, V9102). The ADP-Glo™ kinase assay is performed in two steps once the reaction is complete. The first step is to deplete any unconsumed ATP in the reaction. The second step is to convert the reaction product ADP to ATP, which will be utilized by the luciferase to generate luminesce and be detected by a luminescence reader, such as Envision.
Then, following addition of 5 μL of ADP-Glo™ Reagent provided in the kit, the reaction incubates at room temperature for 40 minutes. Then, 10 μL of Kinase Detection Reagent provided in the kit is added to convert ADP to ATP, and the reaction incubates at room temperature for 60 minutes. Finally, luminescence measurement is collected with a plate-reading luminometer, such as Envision.

T2 sequence (P51532 whole entry): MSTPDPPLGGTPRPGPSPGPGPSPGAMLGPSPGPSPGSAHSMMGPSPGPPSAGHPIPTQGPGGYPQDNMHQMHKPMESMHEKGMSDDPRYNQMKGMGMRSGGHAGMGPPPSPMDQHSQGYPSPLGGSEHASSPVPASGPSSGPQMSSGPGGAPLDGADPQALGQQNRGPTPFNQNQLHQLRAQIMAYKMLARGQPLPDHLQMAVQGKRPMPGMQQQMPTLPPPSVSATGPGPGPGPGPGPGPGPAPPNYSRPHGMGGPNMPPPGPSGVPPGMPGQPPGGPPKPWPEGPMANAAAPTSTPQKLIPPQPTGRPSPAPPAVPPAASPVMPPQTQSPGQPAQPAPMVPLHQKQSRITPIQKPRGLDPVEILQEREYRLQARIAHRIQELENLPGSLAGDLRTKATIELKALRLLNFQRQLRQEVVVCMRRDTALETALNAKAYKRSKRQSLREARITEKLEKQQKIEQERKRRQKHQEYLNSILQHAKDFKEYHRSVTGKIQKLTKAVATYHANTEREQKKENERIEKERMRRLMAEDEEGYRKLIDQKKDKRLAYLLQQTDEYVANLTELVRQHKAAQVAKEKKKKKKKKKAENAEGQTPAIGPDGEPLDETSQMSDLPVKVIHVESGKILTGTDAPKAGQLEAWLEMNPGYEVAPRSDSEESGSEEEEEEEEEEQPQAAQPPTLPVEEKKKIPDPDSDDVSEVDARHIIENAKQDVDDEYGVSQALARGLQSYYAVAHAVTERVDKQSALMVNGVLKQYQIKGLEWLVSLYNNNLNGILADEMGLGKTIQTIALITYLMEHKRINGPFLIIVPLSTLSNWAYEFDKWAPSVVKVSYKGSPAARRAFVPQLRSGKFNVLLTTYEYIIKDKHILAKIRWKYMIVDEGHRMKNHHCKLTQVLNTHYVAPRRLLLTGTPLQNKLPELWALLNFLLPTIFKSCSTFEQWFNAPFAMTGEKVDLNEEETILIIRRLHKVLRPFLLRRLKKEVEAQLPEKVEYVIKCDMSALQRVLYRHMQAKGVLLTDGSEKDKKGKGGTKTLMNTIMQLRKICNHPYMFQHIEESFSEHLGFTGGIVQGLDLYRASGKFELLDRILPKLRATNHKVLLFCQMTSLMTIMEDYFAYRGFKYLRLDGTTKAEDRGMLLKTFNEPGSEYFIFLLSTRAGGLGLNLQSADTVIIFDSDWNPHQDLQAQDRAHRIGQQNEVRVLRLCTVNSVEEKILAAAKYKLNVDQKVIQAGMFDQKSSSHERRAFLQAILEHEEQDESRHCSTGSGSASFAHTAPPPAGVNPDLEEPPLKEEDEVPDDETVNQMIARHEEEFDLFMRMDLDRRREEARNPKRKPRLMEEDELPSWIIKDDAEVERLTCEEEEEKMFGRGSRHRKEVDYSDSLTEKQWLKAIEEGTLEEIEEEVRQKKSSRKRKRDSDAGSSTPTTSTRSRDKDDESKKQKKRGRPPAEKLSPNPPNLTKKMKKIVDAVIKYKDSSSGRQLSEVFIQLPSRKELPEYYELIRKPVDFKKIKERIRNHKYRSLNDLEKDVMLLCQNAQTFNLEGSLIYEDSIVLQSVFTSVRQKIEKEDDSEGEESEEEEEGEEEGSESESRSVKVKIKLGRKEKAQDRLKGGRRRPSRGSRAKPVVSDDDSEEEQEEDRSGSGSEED
T1 sequence (P51531 whole entry): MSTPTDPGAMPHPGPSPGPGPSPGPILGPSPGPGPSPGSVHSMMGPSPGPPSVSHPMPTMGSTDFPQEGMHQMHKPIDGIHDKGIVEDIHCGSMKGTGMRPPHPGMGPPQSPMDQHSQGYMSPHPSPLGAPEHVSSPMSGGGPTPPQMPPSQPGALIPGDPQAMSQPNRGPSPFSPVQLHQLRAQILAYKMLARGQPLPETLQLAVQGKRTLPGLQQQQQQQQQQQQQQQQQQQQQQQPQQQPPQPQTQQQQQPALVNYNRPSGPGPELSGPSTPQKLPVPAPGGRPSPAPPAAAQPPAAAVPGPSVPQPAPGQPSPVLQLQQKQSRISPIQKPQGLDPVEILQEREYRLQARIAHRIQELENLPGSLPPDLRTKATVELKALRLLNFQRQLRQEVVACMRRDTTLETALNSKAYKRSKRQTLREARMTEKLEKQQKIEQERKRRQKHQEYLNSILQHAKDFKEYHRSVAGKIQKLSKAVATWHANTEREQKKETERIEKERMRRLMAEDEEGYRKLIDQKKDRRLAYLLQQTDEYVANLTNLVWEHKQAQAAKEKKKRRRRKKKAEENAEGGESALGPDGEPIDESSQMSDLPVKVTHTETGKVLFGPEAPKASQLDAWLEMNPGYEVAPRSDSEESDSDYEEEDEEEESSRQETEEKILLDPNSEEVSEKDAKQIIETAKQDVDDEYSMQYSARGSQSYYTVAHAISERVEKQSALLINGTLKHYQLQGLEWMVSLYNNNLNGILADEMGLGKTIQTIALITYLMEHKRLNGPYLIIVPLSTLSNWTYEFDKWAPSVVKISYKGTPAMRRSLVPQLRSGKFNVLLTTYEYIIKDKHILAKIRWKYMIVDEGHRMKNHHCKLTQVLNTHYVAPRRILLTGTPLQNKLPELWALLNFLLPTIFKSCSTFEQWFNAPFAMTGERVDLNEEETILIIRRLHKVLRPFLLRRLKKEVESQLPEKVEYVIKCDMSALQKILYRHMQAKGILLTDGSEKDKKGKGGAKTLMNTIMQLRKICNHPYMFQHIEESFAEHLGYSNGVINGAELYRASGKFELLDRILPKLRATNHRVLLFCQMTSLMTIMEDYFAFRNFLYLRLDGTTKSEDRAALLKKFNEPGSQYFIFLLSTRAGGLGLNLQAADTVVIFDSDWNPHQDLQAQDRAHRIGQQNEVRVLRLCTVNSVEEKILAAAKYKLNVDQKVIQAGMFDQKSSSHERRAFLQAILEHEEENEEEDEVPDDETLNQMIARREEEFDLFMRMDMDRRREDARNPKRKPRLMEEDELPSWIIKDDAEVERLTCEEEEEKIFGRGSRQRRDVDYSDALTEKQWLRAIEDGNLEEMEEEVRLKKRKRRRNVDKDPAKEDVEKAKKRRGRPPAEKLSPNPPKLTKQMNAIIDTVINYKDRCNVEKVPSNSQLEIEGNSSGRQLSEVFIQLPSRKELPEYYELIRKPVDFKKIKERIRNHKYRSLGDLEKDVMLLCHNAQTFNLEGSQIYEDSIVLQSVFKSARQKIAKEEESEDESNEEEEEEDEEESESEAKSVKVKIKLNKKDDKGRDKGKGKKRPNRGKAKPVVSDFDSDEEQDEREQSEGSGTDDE

Row | SMILES | Ratio (BRG1 IC50 (μM) divided by BRM IC50 (μM)) (BRM) | IC50 (BRM) [µM] | IC50 (BRG-1) [µM]
1 | O=C(NCc1cc2nc(N3CCOc4ccc(C5CC5)nc43)ccc2cn1)c1ccc2c(c1)S(=O)(=O)[C@@H](F)COC2 [Compound 39] | 13.44 | 0.002 | 0.0246
2 | O=C(NCc1cc2nc(N3CCOc4cc(C5CC5)cnc43)ccc2cn1)c1cc(F)c2c(c1)S(=O)(=O)[C@@H](F)CCO2 [Compound 40] | 16.70 | 0.002 | 0.0385
3 | C[C@@H]1C[C@H]1c1ccc2c(n1)N(c1ccc3cnc(CNC(=O)c4cc(F)c5c(c4)S(=O)(=O)[C@@H](F)COC5)cc3n1)CCO2 [Compound 41] | 20.00 | 0.002 | 0.0464
4 | O=C(NCc1cc2nc(-c3cccc(OC(F)F)n3)ccc2cn1)c1ccc2c(c1)S(=O)(=O)[C@@H](F)CCOC2 [Compound 42] | 13.35 | 0.002 | 0.027
5 | COc1nc([C@](C)(F)C(F)F)ccc1-c1ccc2cnc(CNC(=O)c3ccc4c(c3)S(=O)(=O)[C@@H](F)CCOC4)cc2n1 [Compound 43] | – | 0.002 | 0.0406
6 | COc1nc([C@H](F)CF)ccc1-c1ccc2cnc(CNC(=O)c3cc(F)c4c(c3)S(=O)(=O)[C@@H](F)COC4)cc2n1 [Compound 44] | 23.96 | 0.0021 | 0.0641
7 | CO[C@H]1C[C@H]1c1cnc2c(c1)OCCN2c1ccc2cnc(CNC(=O)c3cc(F)c4c(c3)S(=O)(=O)[C@@H](F)CCO4)cc2n1 [Compound 45] | 12.59 | 0.0021 | 0.0258
8 | COc1nc([C@@H](F)CF)ccc1-c1ccc2cnc(CNC(=O)c3cc(F)c4c(c3)S(=O)(=O)[C@@H](F)COC4)cc2n1 [Compound 46] | 20.83 | 0.0023 | 0.0477
9 | C[C@@H]1CCN1c1cnc2c(c1)OCCN2c1ccc2cnc(CNC(=O)c3cc(F)c4c(c3)S(=O)(=O)[C@@H](F)CCO4)cc2n1 [Compound 47] | 16.31 | 0.0023 | 0.0543
10 | O=C(NCc1cc2nc(N3CCOc4cc(N5CCC5)cnc43)ccc2cn1)c1cc(F)c2c(c1)S(=O)(=O)[C@@H](F)COC2 [Compound 48] | 13.42 | 0.0023 | 0.0341
11 | O=C(NCc1cc2nc(N3CCOc4cc(N5C[C@@H](F)[C@H](F)C5)cnc43)ccc2cn1)c1cc(F)c2c(c1)S(=O)(=O)[C@@H](F)COC2 [Compound 50] | 15.78 | 0.0025 | 0.0387
12 | Cc1cnc2c(c1)OCCN2c1ccc2cnc(CNC(=O)c3cc(F)c4c(c3)S(=O)(=O)[C@@H](F)CCO4)cc2n1 [Compound 51] | 18.72 | 0.0025 | 0.0421
13 | C[C@@H]1CN(c2cccc(/C=C/c3ccnc(CNC(=O)c4cc(F)c5c(c4)S(=O)(=O)[C@@H](F)CCO5)c3)n2)C[C@H](C)O1 [Compound 52, (R)—N-((4-((E)-2-(6-((2S,6R)-2,6-dimethylmorpholino)pyridin-2-yl)vinyl)pyridin-2-yl)methyl)-4,9-difluoro-3,4-dihydro-2H-benzo[b][1,4]oxathiepine-7-carboxamide 5,5-dioxide] | 22.78 | 0.0025 | 0.056
14 | COc1nc(C(F)F)ccc1-c1ccc2cnc(CNC(=O)c3cc(F)c4c(c3)S(=O)(=O)[C@@H](F)COC4)cc2n1 [Compound 53] | 19.48 | 0.0025 | 0.0543
15 | CO[C@H]1CN(c2cccc(-c3ccc4cnc(CNC(=O)c5cc(F)c6c(c5)S(=O)(=O)[C@@H](F)COC6)cc4n3)n2)C[C@@H]1F [Compound 54] | 9.72 | 0.0025 | 0.0279
16 | O=C(NCc1cc2nc(N3CCOc4ccc(C5CC5)nc43)ccc2cn1)c1cc(F)c2c(c1)S(=O)(=O)[C@@H](F)CCO2 [Compound 55] | 35.69 | 0.0025 | 0.124

Row | SMILES | Ratio (BRG1 IC50 (μM) divided by BRM IC50 (μM)) (BRM) | IC50 (BRM) [µM] | IC50 (BRG-1) [µM]
17 | [2H]C1([2H])OC([2H])([2H])[C@H](F)S(=O)(=O)c2cc(C(=O)NCc3cc4nc(N5CCOc6cc(N7CC(F)C7)cnc65)ccc4cn3)cc(F)c21 [Compound 56] | – | 0.0025 | 0.0582
18 | O=C(NCc1cc2nc(N3CCOc4ccc(N5CC[C@H](F)C5)nc43)ccc2cn1)c1cc(F)c2c(c1)S(=O)(=O)[C@@H](F)CCO2 [Compound 57] | 17.61 | 0.0025 | 0.0368
19 | O=C(NCc1cc2nc(N3CCOc4ccc(C(F)F)nc43)ccc2cn1)c1cc(F)c2c(c1)S(=O)(=O)[C@@H](F)COC2 [Compound 58] | 23.60 | 0.0025 | 0.0644
20 | [2H]C1([2H])OC([2H])([2H])[C@H](F)S(=O)(=O)c2cc(C(=O)NCc3cc4nc(N5CCOc6ccc(C7CC7)nc65)ccc4cn3)cc(F)c21 [Compound 59] | – | 0.0025 | 0.0725
21 | O=C(NCc1cc2nc(-c3ccc(C(F)F)c(C4CC4)n3)ccc2cn1)c1cc(F)c2c(c1)S(=O)(=O)[C@@H](F)CCO2 [Compound 60] | 18.66 | 0.0026 | 0.0531
22 | O=C(NCc1cc2nc(N3CCOc4cc(C5CC5)cnc43)ccc2cn1)c1cc(Cl)c2c(c1)S(=O)(=O)[C@@H](F)COC2 [Compound 61] | 21.08 | 0.0026 | 0.0485
23 | O=C(NCc1cc2nc(N3CCOc4ccc([C@H](F)CF)nc43)ccc2cn1)c1cc(F)c2c(c1)S(=O)(=O)[C@@H](F)COC2 [Compound 62] | 28.84 | 0.0026 | 0.0797
24 | O=C(NCc1cc2nc(N3CCOc4ccc(N5CC(F)C5)nc43)ccc2cn1)c1cc(F)c2c(c1)S(=O)(=O)[C@@H](F)COC2 [Compound 63] | 23.13 | 0.0026 | 0.0587
25 | C[C@@H]1CN(c2cccc(-c3ccc4cnc(CNC(=O)c5cc(C(F)F)c6c(c5)S(=O)(=O)[C@@H](F)CCO6)cc4n3)n2)C[C@H](C)O1 [Compound 64] | 11.59 | 0.0026 | 0.0298
26 | O=C(NCc1cc2nc(N3CCOc4c(N5CCC5)ccnc43)ccc2cn1)c1cc(F)c2c(c1)S(=O)(=O)[C@@H](F)CCO2 [Compound 65] | 21.94 | 0.0026 | 0.0462
27 | O=C(NCc1cc2nc(N3CCOc4cc(N5C[C@@H](F)[C@H](F)C5)cnc43)ccc2cn1)c1cc(F)c2c(c1)S(=O)(=O)[C@@H](F)CCO2 [Compound 66] | 24.64 | 0.0026 | 0.0785
28 | CO[C@H]1CN(c2cccc(-c3ccc4cnc(CNC(=O)c5cc(F)c6c(c5)S(=O)(=O)[C@@H](F)CCO6)cc4n3)n2)C[C@@H]1C [Compound 67] | 17.37 | 0.0027 | 0.0462
29 | Cc1cc2c(-c3ccc4cnc(CNC(=O)c5cc(F)c6c(c5)S(=O)(=O)[C@@H](F)CCO6)cc4n3)ccc(F)c2n1C [Compound 68] | 13.58 | 0.0027 | 0.0362
30 | C[C@H]1[C@@H](F)CN1c1cnc2c(c1)OCCN2c1ccc2cnc(CNC(=O)c3cc(F)c4c(c3)S(=O)(=O)[C@@H](F)CCO4)cc2n1 [Compound 69] | 13.99 | 0.0027 | 0.0375
31 | O=C(NCc1cc2nc(N3CCOc4cc(C5(C(F)F)CC5)cnc43)ccc2cn1)c1cc(F)c2c(c1)S(=O)(=O)[C@@H](F)CCO2 [Compound 70] | 12.79 | 0.0027 | 0.0396
32 | COc1cnc2c(c1)OCCN2c1ccc2cnc(CNC(=O)c3cc(F)c4c(c3)S(=O)(=O)[C@@H](F)CCO4)cc2n1 [Compound 71] | 17.64 | 0.0027 | 0.0483
